Measured values as given in ChEMBL document CHEMBL3217504, “Potent growth inhibitory activity of ()-platencin towards multi-drug-resistant and extensively drug-resistant Mycobacterium tuberculosis” (2013).
Values after ≈ are worked out from the molar mass of the structure shown.

Legend:
Assay type in all cases: functional
[1] = system: Mycobacterium tuberculosis; experiment: Antimycobacterial activity against streptomycin, ethambutol, kanamycin, isoniazid, rifabutin, rifampicin, levofloxacin, and ciprofloxacin-resistant Mycobacterium tuberculosis LV19 by microbroth dilution method
[2] = system: Mycobacterium tuberculosis; experiment: Ratio of MBC99.9 to MIC for isoniazid, rifampicin, and rifabutin-resistant Mycobacterium tuberculosis LV2
[3] = system: Mycobacterium tuberculosis; experiment: Ratio of MBC99.9 to MIC for streptomycin, ethambutol, kanamycin, isoniazid, rifabutin, rifampicin, levofloxacin, and ciprofloxacin-resistant Mycobacterium tuberculosis LV19
[4] = system: Mycobacterium tuberculosis; experiment: Antimycobacterial activity against isoniazid, rifampicin, and rifabutin-resistant Mycobacterium tuberculosis LV2 by microbroth dilution method

For C=C1C[C@@]23C=CC(=O)[C@@](C)(CCC(=O)Nc4c(O)ccc(C(=O)O)c4O)[C@@H]2C[C@@H]1CC3 (racemic) [PLATENCIN], the MIC [1] was 1 µg/mL (≈ 2.35 µM), the Ratio [2] was over 64 and the Ratio [3] was over 64. It also gave an MIC [4] of 1 µg/mL (≈ 2.35 µM).
